Assay results published in ChEMBL document CHEMBL1130512, “Structure-based design of non-peptidic pyridone aldehydes as inhibitors of interleukin-1 converting enzyme” (Bioorg Med Chem Lett, 1997).
Residues, ends and D or L forms follow the SMILES beside them. *: point of attachment. Hydrocinnamoyl = O=C(CCc1ccccc1)*; Cbz = O=C(OCc1ccccc1)*

Target: T1, Caspase-1 (Homo sapiens, UniProt P29466)
T1 sequence (P29466 whole entry): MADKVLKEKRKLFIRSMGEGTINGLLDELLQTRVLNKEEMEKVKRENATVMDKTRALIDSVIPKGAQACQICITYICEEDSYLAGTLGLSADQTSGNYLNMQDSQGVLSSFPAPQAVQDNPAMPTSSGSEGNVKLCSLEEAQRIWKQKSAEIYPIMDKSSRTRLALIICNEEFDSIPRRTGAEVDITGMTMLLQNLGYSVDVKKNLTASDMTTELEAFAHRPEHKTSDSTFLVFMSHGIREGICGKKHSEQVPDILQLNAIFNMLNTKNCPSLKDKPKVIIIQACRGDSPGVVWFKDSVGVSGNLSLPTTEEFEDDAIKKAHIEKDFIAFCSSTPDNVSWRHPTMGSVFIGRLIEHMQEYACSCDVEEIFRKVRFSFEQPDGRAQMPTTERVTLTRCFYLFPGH
Assay: Inhibition of IL-1 beta converting enzyme

`CC(C)[C@H](NC(=O)OCc1ccccc1)C(=O)N[C@@H](C)C(=O)N[C@@H](CC(=O)O)C(=O)O` (Cbz-Val-Ala-Asp-OH) showed a Ki of 55 nM.

In the case of `CC(=O)NC(C(=O)Nc1ccc(Cc2ccccc2)n(CC(=O)N[C@H](C=O)CC(=O)O)c1=O)c1ccc(O)cc1` (stereo partly specified), the Ki is reported as 54 nM.

With `CC(=O)N[C@@H](Cc1ccc(O)cc1)C(=O)N[C@H](C(=O)N[C@@H](C)C(=O)N[C@@H](CC(=O)O)C(=O)O)C(C)C` the Ki was 9 nM.

For `O=C[C@H](CC(=O)O)NC(=O)Cn1c(-c2ccccc2)ccc(NC(=O)CCc2ccccc2)c1=O`, the Ki was 900 nM.

`CC(C)[C@H](NC(=O)OCc1ccccc1)C(=O)NCC(=O)N[C@@H](CC(=O)O)C(=O)O` (Cbz-Val-Gly-Asp-OH) showed a Ki of 1300 nM.

`CC(C)[C@H](NC(=O)CCc1ccccc1)C(=O)N[C@@H](C)C(=O)N[C@@H](CC(=O)O)C(=O)O` (Hydrocinnamoyl-Val-Ala-Asp-OH) was tested, and the Ki was 54 nM.
